Data published in ChEMBL document CHEMBL4371005, “Overview of the Development of DprE1 Inhibitors for Combating the Menace of Tuberculosis” (J Med Chem, 2018).
≈ marks a conversion by molar mass, not a printed value.

What was measured:
[1] = system: Mycobacterium tuberculosis; experiment: Antimycobacterial activity against Mycobacterium tuberculosis H37Rv harboring deltarv3406 dprE1 L368P after overnight incubation by REMA method; assay type: functional
[2] = system: Mycobacterium tuberculosis; experiment: Antimycobacterial activity against Mycobacterium tuberculosis H37Rv harboring rv3405c mutant TRC4 after overnight incubation by REMA method; assay type: functional

| SMILES | MIC99 [1] [µM] | MIC99 [2] [µM] |
| --- | --- | --- |
| O=C(O)c1nc2ccc(C(F)(F)F)cc2nc1NCc1ccc(F)cc1 | 25 (≈ 9.13 µg/mL) | 25 (≈ 9.13 µg/mL) |
| COc1ccc(CNc2nc3cc(C(F)(F)F)ccc3nc2C(=O)O)cc1 | 12.5 (≈ 4.72 µg/mL) | 6.3 (≈ 2.38 µg/mL) |
| CCOC(=O)c1nc2ccc(C(F)(F)F)cc2nc1NCc1ccc(OC)cc1 | 12.5 to 25 | 6.3 (≈ 2.55 µg/mL) |
| COc1ccc(CNc2nc3cc(C(F)(F)F)ccc3nc2C(=O)O)cc1F | 25 (≈ 9.88 µg/mL) | 12.5 (≈ 4.94 µg/mL) |
| CCOc1ccc(CNc2nc3cc(C(F)(F)F)ccc3nc2C(=O)O)cc1 | 12.5 (≈ 4.89 µg/mL) | 6.3 (≈ 2.47 µg/mL) |
| N#Cc1ccc(CNc2nc3cc(C(F)(F)F)ccc3nc2C(=O)O)cc1 | 100 (≈ 37.2 µg/mL) | 50 (≈ 18.6 µg/mL) |
| O=C(O)c1nc2ccc(C(F)(F)F)cc2nc1NCc1ccc(C(F)(F)F)cc1 | 25 (≈ 10.4 µg/mL) | 12.5 (≈ 5.19 µg/mL) |
| O=C(O)c1nc2ccc(C(F)(F)F)cc2nc1NCc1ccc(Cl)cc1 | 25 (≈ 9.54 µg/mL) | 12.5 (≈ 4.77 µg/mL) |
